One compound from patent US20090170880A1, “Methods and Means for the Treatment of Cancer” (priority 2007, published 2009) can be followed below.

Like-named read-outs stand apart in the source and are kept apart here.

Series [1] can be described thus: Brain penetration study, temozolomide i.v. in wild-type and knockout mice. It is filed as in vivo. The following applies: for AUC(0-t): 50 mg/kg, read-out: AUC0-7 h plasma. How it is done: Based on previous work by Kim et al (11) we have developed a high-performance liquid chromatographic assay for the determination for quantification of temozolomide in medium used for transwell experiments and in mouse plasma and brain tissue homogenates for in vivo pharmacokinetic studies. Separation/quantification was achieved using a Symmetry® C18 column (150×2.0 mm; ID) together with a mobile phase of 7.5% of methanol in 0.5% acetic acid in water, delivered at a flow rate of 0.2 ml/min and UV detection at 330 nm ((PDA996 photodiode array detector; Waters, Milford, Mass., USA or SF 757 detector; Kratos, Ramsey, N.J., USA). Medium from transwell experiments was 10-fold diluted with 0.2% acetic acid in water and 50 μl was injected directly into the HPLC system. Temozolomide was extracted from the acidified plasma and brain tissue homogenate samples (200 μl) with 1.0 ml ethyl acetate. The dried extracts were subsequently dissolved in 100 μl of 5% methanol in 0.2% acetic acid in water and 50 μl was injected into the HPLC system. External calibration was performed since no internal standard was available. The lower and upper limit of quantitation was 0.020 and 10.0 μg/ml, respectively. Samples above the upper limit of quantification were first diluted with acidified blank human plasma. All samples from in vivo studies were analyzed in duplicate in 2 independent analytical series and repeated once more when the results differed by more than 10%.
The brain penetration study comprised cohorts of animals receiving temozolomide (50 mg/kg) by intravenous injection in the tail vein. Each cohort consisted of at least 40 animals in which at least 6 animals were used per time point (t=15 min, 1, 2, 4 and 7 hours post temozolomide administration). […] The mice were anesthetized with metoxyflurane and blood samples were obtained by cardiac puncture and collected on ice in tubes containing potassium EDTA as anticoagulant. The tubes were placed in melting ice, centrifuged within 60 min (10 min, 5000 g, 4° C.) to separate the plasma fraction, which was transferred into clean vials, mixed with 1 M hydrochloric acid (10+1; v/v) and stored at −20° C. until analysis. Immediately after cardiac puncture the mice were killed by cervical dislocation and the brains were dissected and placed on ice. Within 60 min they were weighed and homogenized in 3 ml of ice-cold 1% of BSA in 0.05 M phosphate buffer adjusted to pH 2 and stored at −20° C. until further analysis.
Plasma and brain AUC0-7h values and standard errors were calculated by the linear trapezoidal rule using standard equations (14). The plasma half-life of temozolomide was calculated by linear regression analysis after log transformation of the concentration data using Microsoft Excel 2003. The brain-to-plasma ratio was calculated for each individual animal. The two-sided unpaired Student's t-test was used for statistical analysis of AUC values. Bonferroni's test for multiple comparisons was calculated using SPSS (v12.0.1; SPSS Inc, Chicago, Ill., USA) for brain and plasma levels and brain-to-plasma ratios determined at 2 h post temozolomide administration with the inhibitors and for analyzing the results of the in vivo efficacy study.

Series [2] can be described thus: Transwell experiments, recovery of temozolomide in acceptor compartment. The format is in vitro ADME. Particulars: after 30 min, transport medium pH 7.4. How it is done:
(§1) The parental LLC pig-kidney (PK1) cell line and sublines transduced with murine Mdr1a or human MDR1 (12) and the parental Madine Darby Canine Kidney (MDCK) and murine Bcrp1 or human BCRP transduced sublines (13) were seeded on Transwell microporous polycarbonate membrane filters (3.0 μm pore size, 24 mm diameter; Costar Corning, N.Y., USA) at a density of 1×10^6 cells per well in 2 ml of MEM medium (Invitrogen Corporation, Carlsbad, Calif.) containing 10% v/v fetal calf serum. Cells were incubated at 37° C. in 5% CO2 for three days with one medium replacement after the first day. Two hours before the start of the experiment the medium in both compartments was replaced with 2 ml of OptiMEM medium (InVitrogen Corp.). At the start of the experiment the medium in the apical or basolateral compartment was replaced with 2 ml of freshly prepared OptiMEM medium containing 40 μg/ml of temozolomide. […] Zosuquidar (LY335979, 5 μM) was always added to the medium when doing experiments with MDCK cell lines to inhibit endogenous canine P-gp. Samples of 50 μl were collected every 30 min, for up to 2 h after start of the experiment. Because temozolomide is instable in medium at 37° C., we replaced one ml of the donor compartment by a freshly prepared aliquot every 30 min. […]

The target in another series is T1, human BCRP (Homo sapiens, UniProt Q9UNQ0).
T1 construct: expressed in transfected cells; host or cells: MDCK (canine kidney) cells transduced with human BCRP
T1 sequence (Q9UNQ0 1-655): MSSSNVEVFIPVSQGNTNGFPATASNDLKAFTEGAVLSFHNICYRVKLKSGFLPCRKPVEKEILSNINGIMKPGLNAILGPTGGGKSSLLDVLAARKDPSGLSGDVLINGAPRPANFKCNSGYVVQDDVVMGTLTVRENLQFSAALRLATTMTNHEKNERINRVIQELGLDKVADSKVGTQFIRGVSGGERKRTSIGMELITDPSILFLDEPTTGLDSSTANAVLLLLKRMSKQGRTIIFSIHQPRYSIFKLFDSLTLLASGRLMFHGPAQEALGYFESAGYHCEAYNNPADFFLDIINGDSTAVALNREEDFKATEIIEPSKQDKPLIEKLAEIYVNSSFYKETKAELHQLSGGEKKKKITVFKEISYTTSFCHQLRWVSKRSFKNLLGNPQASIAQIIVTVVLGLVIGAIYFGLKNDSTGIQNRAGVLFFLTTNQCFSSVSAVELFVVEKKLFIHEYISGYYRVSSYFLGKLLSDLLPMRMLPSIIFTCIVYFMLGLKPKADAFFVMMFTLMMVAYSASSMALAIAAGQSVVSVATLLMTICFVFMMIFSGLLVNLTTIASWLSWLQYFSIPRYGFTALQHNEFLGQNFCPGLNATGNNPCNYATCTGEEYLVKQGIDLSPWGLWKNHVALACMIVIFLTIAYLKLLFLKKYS
Put plainly: Transwell transport of temozolomide, MDCK-BCRP cells. It is filed as in vitro ADME. The following applies: 40 μg/ml, MDCK-BCRP versus MDCK parent, zosuquidar 5 μM. On the procedure: as §1

Setting [3] is: Bcrp1 knockout mice, i.v. 50 mg/kg.
The mark [4] stands for this setting: Bcrp, Mdr1ab knockout mice, i.v. 50 mg/kg.
Where [5] appears, read: Mdr1ab knockout mice, i.v. 50 mg/kg.

A word on the half-life: it is the time in which the quantity being followed falls by half. For the compound `Cn1nnc2c(C(N)=O)ncn2c1=O` [temozolomide, 8-carbamoyl-3-methyl-[3H]-imidazo[5,1-d]-1,2,3,5-tetrazin-4-one], the “increase of brain penetration / accumulation relative to wild-type” value in series [1] (Bcrp1/Mdr1ab knockout mice, i.v. 50 mg/kg) was 50%. Besides, the “AUC0-7 h, brain” value in series [1] (setting [3]) was 44.78 ± 1.88^1 μg/g · h; in series [1] (setting [4]), 56.46 ± 1.17^1,2,3 μg/g · h; in series [1] (setting [5]) it was 44.51 ± 1.56^1 μg/g · h; in series [1] (Wild-type mice, i.v. 50 mg/kg), 37.73 ± 1.11 µg·h/g. Moreover, the T½plasma in series [1] (setting [3]) was 0.719 ± 0.017^ns h; in series [1] (setting [4]), 0.705 ± 0.014^ns h; in series [1] (setting [5]) it was 0.757 ± 0.021^ns h; in series [1] (Wild-type mice, i.v. 50 mg/kg), 0.689 ± 0.019 h. For the same compound, the AUC(0-t) in series [1] (FVB, mouse, plasma, iv, Bcrp1 knockout mice, i.v. 50 mg/kg) worked out at 63000 ± 2140 ng·h/mL; in series [1] (FVB, mouse, plasma, iv, Bcrp, Mdr1ab knockout mice, i.v. 50 mg/kg), 64500 ± 1290 ng·h/mL; in series [1] (FVB, mouse, plasma, iv, Mdr1ab knockout mice, i.v. 50 mg/kg), 62200 ± 2050 ng·h/mL; in series [1] (FVB, mouse, plasma, iv, Wild-type mice, i.v. 50 mg/kg), 65400 ± 2000 ng·h/mL. Besides, the half-life in series [1] (FVB, mouse, plasma, iv, mice, i.v. 50 mg/kg, read-out: plasma half-life, first-order elimination (converted)) was 42 min. In series [1] (absence of both P-gp and Bcrp1 versus wild-type), the “enhancement of the brain penetration” value is 1.5 fold. Moreover, in series [2], the “dose recovered in the acceptor compartment” value is listed as “at least 5%”. In addition, the results for the “transport of temozolomide by human BCRP” value on human BCRP and on human BCRP (listed as Temozolomide) were “more moderate transport” and “less”, respectively.
